According to publication PMC3725310 (Nature, 2013):

Biological target: p7(5a) (Hepatitis C virus (isolate EUH1480), UniProt O39928, A759S/C749A/C774T/C791S/T748G)
Assay: biochemical
Assay type: binding

For `CC(N)C12CC3CC(CC(C3)C1)C2` (stereo not shown) [rimantadine], the Kd was 50 to 100 µM.
